Columns and labels:
Assay type in all cases: cell-based
[1] = system: human peripheral blood T lymphocytes; assay: Migration assay with or without concentration gradient
[2] = system: human peripheral blood T cells; assay: Naloxone inhibition of T cell migration to stimuli; details: for Specific migration with naloxone / Specific migration without naloxone: spontaneous locomotion subtracted; for Effect of naloxone on specific migration (percent response): naloxone-treated/nontreated x 100%
[3] = system: human peripheral blood T lymphocytes; assay: T cell migration assay in microchemotaxis chamber; details: peptides at 10 -5 M in lower wells, 1.5 h at 37C, Fig. 3; Dunnett's test
[4] = doses between 10-13 and 10^-9 M, migration only when a gradient existed
[5] = donor 4, stimulus at 10^-9 M, naloxone 10^-5 M
[6] = donor 5, stimulus at 10^-5 M, naloxone 10^-5 M

Compound: Tyr-Gly-Gly-Phe-Met [MET-ENK, methionine-enkephalin]
- type of locomotion stimulated [1, 4]: chemotactic
- Specific migration with naloxone ([2]; donor 4, stimulus at 10- " M, naloxone 10^-5 M): 2
- Specific migration without naloxone ([2]; donor 4, stimulus at 10- " M): 830
- Effect of naloxone on specific migration (percent response) [2, 5]: 12.8%
- Specific migration with naloxone [2, 5]: 335
- Effect of naloxone on specific migration (percent response) [2, 6]: 24.8%
- Specific migration with naloxone [2, 6]: 768
- Specific migration without naloxone ([2]; donor 5, stimulus at 10^-5 M): 3,093

Compound: [D-Ser2Leu']- enkephalin Thb [DSLET]
- T cell migration response compared with spontaneous locomotion [3]: greater then spon- taneous locomotion

Compound: C=CCN1CC[C@]23c4c5ccc(O)c4O[C@H]2C(=O)CC[C@@]3(O)[C@H]1C5 [naloxone, Naloxone]
- effect of naloxone on locomotion caused by IL-2 ([2]; naloxone 10^-5 M, cells pretreated 15 h at 37C, IL-2 100 U/ml, Table 1): no effect
- effect of naloxone on T cell migration in response to MET-ENK or LEU-ENK ([2]; naloxone 10^-5 M, cells pretreated 15 h at 37C, Table 1): inhibited

Compound: /3-END: purified human beta-endorphin from Calbiochem-Behring Corp.; endogenous opioid neurohormone (YGGFMTSEKSQTPLVTLFKNAIIKNAYKKGE; Beta-endorphin; UniProt P01189 237-267, looked up)
- T cell migration without gradient (stimulus in upper and lower chambers) ([1]; 10-9, 10^-7 and 10^-5 M, single donor, Fig. 2, p >0.05, NS): equivalent to the spontaneous locomotion
- type of locomotion stimulated ([1]; beta-END, Fig. 2, 10^-9 to 10^-5 M): chemotactic

Compound: [o-Ala2 ,MePhe4,Gly(ol)'j-enkephalin [DAGO]
- T cell migration response compared with spontaneous locomotion [3]: greater then spon- taneous locomotion

Compound: cyclic [p-Pen2,n-Pen']-enkephalin [DPDPE]
- T cell migration response compared with spontaneous locomotion [3]: greater then spon- taneous locomotion

Compound: H-Gly-Gly-Phe-Leu-OH [DesTyr-LEU-ENK]
- T cell migration response compared with spontaneous locomotion [3]: no effect on T cell migration

Compound: Tyr-Gly-Gly-Phe-Leu [LEU-ENK, leucine-enkephalin]
- T cell migration response compared with spontaneous locomotion [3]: stimulatory
- type of locomotion stimulated [1, 4]: chemotactic
- Effect of naloxone on specific migration (percent response) [2, 6]: 18.4%
- Specific migration with naloxone [2, 6]: 582
- Specific migration without naloxone ([2]; donor 5, stimulus at 10^-5 M): 3,171

Compound: (D-Ala2, o- Leu']-enkephalin [DADLE]
- T cell migration response compared with spontaneous locomotion [3]: greater then spon- taneous locomotion

Compound: [n-Ala-2,N-Me-Phe4Met(o)4-01]-enkephalin [FK 33-824]
- T cell migration response compared with spontaneous locomotion [3]: greater then spon- taneous locomotion
